{"source": "patent US9492471B2", "about": "“Methods of treating a disease or disorder associated with Bruton'S Tyrosine Kinase” (Celgene Avilomics Research, Inc., priority 2013, dated 2016)", "assay_in_all_cases": "HotSpot kinase profiling", "format_in_all_cases": "biochemical", "key": {"DYRK4": {"biological_target": "T1, DYRK4 (Homo sapiens, UniProt Q9NR20)", "T1 construct": "purchased Reaction Biology Corp", "T1 sequence (Q9NR20 1-520)": "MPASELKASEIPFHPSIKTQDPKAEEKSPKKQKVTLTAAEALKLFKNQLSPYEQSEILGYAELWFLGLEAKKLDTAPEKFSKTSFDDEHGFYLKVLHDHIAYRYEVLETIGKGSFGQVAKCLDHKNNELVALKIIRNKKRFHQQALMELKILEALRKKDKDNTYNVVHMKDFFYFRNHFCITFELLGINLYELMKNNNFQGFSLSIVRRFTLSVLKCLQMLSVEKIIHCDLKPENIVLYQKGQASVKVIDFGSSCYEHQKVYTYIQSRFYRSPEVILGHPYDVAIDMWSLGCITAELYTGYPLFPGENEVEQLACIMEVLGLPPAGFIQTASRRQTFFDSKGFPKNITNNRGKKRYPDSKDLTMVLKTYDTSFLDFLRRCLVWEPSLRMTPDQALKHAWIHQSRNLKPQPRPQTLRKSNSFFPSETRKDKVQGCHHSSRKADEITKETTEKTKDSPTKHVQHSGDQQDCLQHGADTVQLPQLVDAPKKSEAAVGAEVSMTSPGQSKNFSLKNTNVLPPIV", "how_it_was_run": "(§1)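 Radio-isotope P81 filtration format. Substrate + required cofactors in reaction buffer, kinase added, 2 h RT. Stop, wash with 0.1% phosphoric acid, detect. % inhibition vs DMSO; mean of duplicates where repeated.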"}, "EPHA1": {"biological_target": "T2, EPHA1 (Homo sapiens, UniProt P21709)", "T2 construct": "purchased Reaction Biology Corp", "T2 sequence (P21709 26-976)": "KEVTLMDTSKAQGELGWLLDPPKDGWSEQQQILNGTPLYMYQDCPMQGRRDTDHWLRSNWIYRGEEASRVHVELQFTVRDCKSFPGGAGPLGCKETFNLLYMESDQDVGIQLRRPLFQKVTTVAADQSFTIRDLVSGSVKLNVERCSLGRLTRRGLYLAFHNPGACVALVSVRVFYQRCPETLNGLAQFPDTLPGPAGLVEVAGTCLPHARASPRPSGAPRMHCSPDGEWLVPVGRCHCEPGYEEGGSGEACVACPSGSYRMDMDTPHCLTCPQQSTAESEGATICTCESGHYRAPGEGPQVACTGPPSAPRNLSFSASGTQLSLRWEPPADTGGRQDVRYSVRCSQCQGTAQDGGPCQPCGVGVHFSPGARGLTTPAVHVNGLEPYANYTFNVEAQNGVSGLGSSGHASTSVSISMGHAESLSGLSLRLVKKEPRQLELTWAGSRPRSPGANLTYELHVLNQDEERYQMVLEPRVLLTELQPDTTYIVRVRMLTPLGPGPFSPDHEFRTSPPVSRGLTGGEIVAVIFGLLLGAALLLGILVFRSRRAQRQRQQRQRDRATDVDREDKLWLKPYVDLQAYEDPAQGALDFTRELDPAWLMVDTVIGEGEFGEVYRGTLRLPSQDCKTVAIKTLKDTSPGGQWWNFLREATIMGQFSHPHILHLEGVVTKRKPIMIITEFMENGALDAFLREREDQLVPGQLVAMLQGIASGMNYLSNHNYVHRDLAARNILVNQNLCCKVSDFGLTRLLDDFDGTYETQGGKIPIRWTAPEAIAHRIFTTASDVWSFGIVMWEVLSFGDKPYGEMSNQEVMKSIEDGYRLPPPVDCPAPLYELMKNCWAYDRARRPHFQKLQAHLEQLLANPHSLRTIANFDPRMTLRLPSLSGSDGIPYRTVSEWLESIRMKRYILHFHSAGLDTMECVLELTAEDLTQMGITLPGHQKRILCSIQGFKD", "how_it_was_run": "as §1"}, "KDR/VEGFR2": {"biological_target": "T3, KDR/VEGFR2 (Homo sapiens, UniProt P35968)", "T3 construct": "purchased Reaction Biology Corp", "T3 sequence (P35968 20-1356)": "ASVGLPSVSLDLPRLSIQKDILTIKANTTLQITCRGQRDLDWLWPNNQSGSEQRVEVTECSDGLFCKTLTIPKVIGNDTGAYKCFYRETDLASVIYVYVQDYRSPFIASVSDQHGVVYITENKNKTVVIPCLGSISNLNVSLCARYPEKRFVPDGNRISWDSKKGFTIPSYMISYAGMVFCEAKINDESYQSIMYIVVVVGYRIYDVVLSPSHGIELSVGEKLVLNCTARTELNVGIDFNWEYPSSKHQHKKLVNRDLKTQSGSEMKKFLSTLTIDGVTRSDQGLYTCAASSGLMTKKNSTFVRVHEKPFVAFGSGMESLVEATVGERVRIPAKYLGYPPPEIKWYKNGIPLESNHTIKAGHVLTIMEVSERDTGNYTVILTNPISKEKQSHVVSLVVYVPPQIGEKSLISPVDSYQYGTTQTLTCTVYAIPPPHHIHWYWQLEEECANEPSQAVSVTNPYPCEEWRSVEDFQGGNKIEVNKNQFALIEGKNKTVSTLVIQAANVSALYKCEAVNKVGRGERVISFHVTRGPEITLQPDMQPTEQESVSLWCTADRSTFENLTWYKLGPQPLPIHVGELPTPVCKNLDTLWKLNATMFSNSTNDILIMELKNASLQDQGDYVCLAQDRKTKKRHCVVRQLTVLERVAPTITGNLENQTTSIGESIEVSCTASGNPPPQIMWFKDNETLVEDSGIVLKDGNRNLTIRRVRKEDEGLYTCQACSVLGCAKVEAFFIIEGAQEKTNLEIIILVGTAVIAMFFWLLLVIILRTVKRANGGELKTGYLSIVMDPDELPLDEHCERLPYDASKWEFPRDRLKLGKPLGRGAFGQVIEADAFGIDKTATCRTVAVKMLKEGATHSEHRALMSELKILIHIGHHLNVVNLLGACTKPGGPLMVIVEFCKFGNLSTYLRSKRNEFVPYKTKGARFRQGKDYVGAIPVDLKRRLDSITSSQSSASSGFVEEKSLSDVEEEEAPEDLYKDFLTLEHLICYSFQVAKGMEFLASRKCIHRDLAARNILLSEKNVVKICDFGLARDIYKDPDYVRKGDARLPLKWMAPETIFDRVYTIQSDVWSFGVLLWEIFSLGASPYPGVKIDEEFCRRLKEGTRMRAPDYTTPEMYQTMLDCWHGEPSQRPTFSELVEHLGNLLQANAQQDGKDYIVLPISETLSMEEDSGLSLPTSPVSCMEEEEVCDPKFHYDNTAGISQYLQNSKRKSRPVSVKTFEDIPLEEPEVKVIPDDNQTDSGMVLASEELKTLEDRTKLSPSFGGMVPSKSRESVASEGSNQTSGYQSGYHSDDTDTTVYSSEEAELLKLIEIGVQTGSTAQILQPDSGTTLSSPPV", "how_it_was_run": "as §1"}, "MARK4": {"biological_target": "T4, MARK4 (Homo sapiens, UniProt Q96L34)", "T4 construct": "purchased Reaction Biology Corp", "T4 sequence (Q96L34 1-752)": "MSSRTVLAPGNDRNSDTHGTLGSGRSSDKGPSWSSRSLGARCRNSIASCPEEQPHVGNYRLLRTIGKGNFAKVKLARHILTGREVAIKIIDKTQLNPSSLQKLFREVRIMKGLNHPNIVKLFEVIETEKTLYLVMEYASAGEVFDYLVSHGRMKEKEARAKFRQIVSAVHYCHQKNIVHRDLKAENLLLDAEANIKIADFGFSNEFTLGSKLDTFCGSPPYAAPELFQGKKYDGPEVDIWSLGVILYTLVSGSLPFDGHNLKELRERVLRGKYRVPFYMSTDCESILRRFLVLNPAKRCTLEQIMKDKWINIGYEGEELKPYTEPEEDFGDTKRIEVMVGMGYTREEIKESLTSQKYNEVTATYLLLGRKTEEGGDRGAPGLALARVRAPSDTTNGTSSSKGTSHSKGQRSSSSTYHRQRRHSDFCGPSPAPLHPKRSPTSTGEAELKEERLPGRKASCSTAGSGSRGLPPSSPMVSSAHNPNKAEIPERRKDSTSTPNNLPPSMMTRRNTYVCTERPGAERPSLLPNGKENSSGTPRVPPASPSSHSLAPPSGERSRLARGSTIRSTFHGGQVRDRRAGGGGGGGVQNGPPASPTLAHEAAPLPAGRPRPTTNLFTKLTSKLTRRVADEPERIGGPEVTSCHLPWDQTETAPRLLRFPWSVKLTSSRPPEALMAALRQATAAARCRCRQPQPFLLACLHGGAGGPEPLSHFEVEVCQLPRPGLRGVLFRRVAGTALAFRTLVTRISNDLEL", "how_it_was_run": "as §1"}, "STK25/YSK1": {"biological_target": "T5, STK25/YSK1 (Homo sapiens, UniProt O00506)", "T5 construct": "purchased Reaction Biology Corp", "T5 sequence (O00506 whole entry)": "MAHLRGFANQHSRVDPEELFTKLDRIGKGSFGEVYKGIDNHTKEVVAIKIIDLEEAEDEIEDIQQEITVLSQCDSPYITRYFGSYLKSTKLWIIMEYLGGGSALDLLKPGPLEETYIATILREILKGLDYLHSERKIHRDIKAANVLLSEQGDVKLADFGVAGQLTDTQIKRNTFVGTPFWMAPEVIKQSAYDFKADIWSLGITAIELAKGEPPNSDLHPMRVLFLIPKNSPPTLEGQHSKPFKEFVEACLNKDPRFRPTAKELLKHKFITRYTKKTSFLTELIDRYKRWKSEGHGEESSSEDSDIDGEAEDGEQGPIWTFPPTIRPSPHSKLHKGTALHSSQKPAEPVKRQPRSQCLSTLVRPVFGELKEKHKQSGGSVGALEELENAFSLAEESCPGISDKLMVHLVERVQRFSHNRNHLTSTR", "how_it_was_run": "as §1"}, "[1]": {"settings": "read-out: % Enzyme Activity (relative to DMSO controls) Run 1"}, "[2]": {"settings": "read-out: % Enzyme Activity (relative to DMSO controls) Run 2"}}, "note": "Read-outs that look alike come from different tables or passages of the source.", "data": [{"compound": "C=CC(=O)Nc1cccc(Nc2nc(Nc3ccc(OCCOC)c(F)c3)ncc2F)c1", "note": "[Compound 2]", "values": [{"measurement": "inhibition at 3 µM", "setting": "DYRK4", "result": -5.35, "unit": "%"}, {"measurement": "remaining activity at 3 µM", "setting": "DYRK4; [1]", "result": 105, "unit": "%"}, {"measurement": "remaining activity at 3 µM", "setting": "DYRK4; [2]", "result": 106, "unit": "%"}, {"measurement": "inhibition at 3 µM", "setting": "EPHA1", "result": -0.24, "unit": "%"}, {"measurement": "remaining activity at 3 µM", "setting": "EPHA1; [1]", "result": 99.5, "unit": "%"}, {"measurement": "remaining activity at 3 µM", "setting": "EPHA1; [2]", "result": 101, "unit": "%"}, {"measurement": "inhibition at 3 µM", "setting": "KDR/VEGFR2", "result": 17.7, "unit": "%"}, {"measurement": "remaining activity at 3 µM", "setting": "KDR/VEGFR2; [1]", "result": 83.3, "unit": "%"}, {"measurement": "remaining activity at 3 µM", "setting": "KDR/VEGFR2; [2]", "result": 81.2, "unit": "%"}, {"measurement": "inhibition at 3 µM", "setting": "MARK4", "result": 18.5, "unit": "%"}, {"measurement": "remaining activity at 3 µM", "setting": "MARK4; [1]", "result": 82.2, "unit": "%"}, {"measurement": "remaining activity at 3 µM", "setting": "MARK4; [2]", "result": 80.9, "unit": "%"}, {"measurement": "inhibition at 3 µM", "setting": "STK25/YSK1", "result": 5.72, "unit": "%"}, {"measurement": "remaining activity at 3 µM", "setting": "STK25/YSK1; [1]", "result": 94.5, "unit": "%"}, {"measurement": "remaining activity at 3 µM", "setting": "STK25/YSK1; [2]", "result": 94.1, "unit": "%"}]}]}
